Test results as given in patent publication US11679168B2, “Caspase-3-triggered molecular self-assembling PET probes and uses thereof” (The Board of Trustees of the Leland Stanford Junior …, priority 2018, dated 2023).
Where “and” joins values, the source holds several entries; their conditions need not be identical. Identical values can stand only once. Like-named read-outs stand apart in the source and are kept apart here. Values belong to the molecule of their own block, whether it stands above or below them. Square brackets hold non-standard residues; d marks the D form. Peptide text beside a SMILES is read from it. * marks the point of attachment. NH(CH2)3O(2-CNpyrimidin5yl) = N#Cc1ncc(OCCCN*)cn1; 4Amb = NCc1ccc(C(=O)O)cc1; Pra = C#CC[CH](N)C(=O)O; SEt = CCS*

Key:
[1] = cited from earlier work; for 2nd order rate constant k: aromatic nitrile with L-cysteine, reported in Reference 13
[2] = tested on: β-galactosidase activity in 9L/LacZ cells
Protocol: FIG. 33 illustrates quantification of fluorescent intensity in the flow cytometry data in FIG. 3G.
Confocal Microscopy Imaging of 9L/LacZ Cell With B-SNAF2/4-BDP: Cells were incubated with B-SNAF2-BDP or B-SNAF4-BDP (2 μM) at 37° C. for 2 hours and then were then washed three times with cold PBS. The cells were fixed with 4% paraformaldehyde and stained with 2 μM Hoechst 33258 (Sigma) for 10 min. The cells were washed three times with PBS mounted with 2 μM Hoechst 33258 (Sigma) at 37° C. for 20 min. Cells were then fixed and imaged using a confocal laser scanning microscope (Zeiss LSM710; Zeiss America) with DAPI and DsRed filters. The images were processed using the ImageJ software package (National Institutes of Health).

[3] = DLS of nanoaggregates of cyclized products; type: physicochemical; settings: 10 μM, after raising pH from 4 to 7.4
Protocol: DLS Measurements: DLS measurements samples of I-VI were prepared by diluting fresh stock solutions of I-VI (20 mM in DMSO) to 10 μM solutions with HCl aqueous solution to adjust pH to 4. DLS measurements samples of cycl-I-VI were prepared by adding 0.5 μL of freshly prepared stock solutions of 1-VI (20 mM in DMSO), 6 μL saturated sodium bicarbonate solution into 993.5 μL H2O to adjust pH to 7.4.

[4] = Intramolecular cyclization kinetics (HPLC assay); type: physicochemical; settings: PBS, pH 7.4, room temperature
Protocol: General Methods for Measuring Intramolecular Cyclization Kinetics: The 1st order rate constants of intramolecular cyclization of I-VI to produce cycl-I-VI, respectively were measured by HPLC assays adapted from the previously reported assay^38. To solutions of substrates I-VI in phosphate buffered saline (PBS) (1×, pH=7.4) were added a solution of TCEP (2.0 equiv.) in PBS (freshly prepared and the pH was adjusted to 7.4 by 1 N sodium hydroxide aqueous solution), affording a final concentration of 100 μM for the substrates. The mixture was kept at room temperature (23° C.) and monitored by HPLC at different time points. The concentration of remaining starting material was calculated using the peak integrals of the starting material at 254 nm. Based on first-order reaction law, In([At]/[A0]) was plotted against time and the slope of the linear regression result gives the first-order rate constant.

[5] = Condensation kinetics of aromatic nitriles with L-cysteine (HPLC assay); type: physicochemical; settings: for 2nd order rate constant k: aromatic nitrile with L-cysteine, PBS buffer, room temperature, HPLC assay; for second-order reaction rate: cyano-substituted aromatic with L-cysteine, phosphate-buffered saline (pH=7.4), FIG. 50A
Protocol: (§1) General Methods for Measuring Kinetics of Condensation Reactions Between Aromatic Nitriles and Aminothiols: The 2nd order rate constants for condensation reactions between aromatic nitriles and aminothiols were measured by using HPLC assays. To solutions of aromatic nitriles (100 μM) in phosphate buffered saline (PBS) (1×, pH=7.4) were added aminothiol (1.0 equiv.), TCEP (2.0 equiv.) and NaHCO3 (3 equiv.). The reaction solutions were kept at room temperature (23° C.) and monitored by HPLC at different time points. The conversion rates were calculated using the peak integrals of aromatic nitriles and the condensation products at 254 nm. Based on 2nd order reaction law, 1/[aromatic nitrile] was plotted against time and the slope of the linear regression result gives the 2nd order rate constant.

[6] = Condensation kinetics of aminothiols with CBT (HPLC assay); type: physicochemical; settings: for 2nd order rate constant k: aminothiol with CBT, PBS buffer, room temperature, HPLC assay; for second-order reaction rate: substituted cysteine analogues with CBT, FIG. 50B
Protocol: as §1

recombinant human MetAP2 = recombinant human MetAP2 (Homo sapiens, UniProt P50579); experiment: Macrocyclization and nanoaggregation of M-SNAT with recombinant MetAP2; settings: for macrocyclization (HPLC, mass spectrometry): TCEP
Sequence of recombinant human MetAP2 (P50579 whole entry): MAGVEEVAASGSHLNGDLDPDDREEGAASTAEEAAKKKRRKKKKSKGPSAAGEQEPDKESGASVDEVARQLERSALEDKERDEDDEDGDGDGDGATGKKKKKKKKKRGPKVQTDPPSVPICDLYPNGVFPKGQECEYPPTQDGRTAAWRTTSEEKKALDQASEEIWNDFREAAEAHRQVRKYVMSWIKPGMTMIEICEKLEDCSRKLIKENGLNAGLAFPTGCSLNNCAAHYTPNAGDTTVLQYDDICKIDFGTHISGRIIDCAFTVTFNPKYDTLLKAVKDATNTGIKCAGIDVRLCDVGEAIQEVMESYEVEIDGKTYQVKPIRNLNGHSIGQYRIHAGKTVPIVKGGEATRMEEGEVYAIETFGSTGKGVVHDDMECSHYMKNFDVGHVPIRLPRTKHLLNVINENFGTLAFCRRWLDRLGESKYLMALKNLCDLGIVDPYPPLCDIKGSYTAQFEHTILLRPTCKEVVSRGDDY

[7] = tested on: MetAP2 activity in DU145 cells; experiment: Imaging MetAP2 activity in DU145 cells (post click Cy5 labeling); type: cell-based, human; settings: for Cy5 post-labeled fluorescence in cells: DU145, 20 μM, 24 h
Protocol: Imaging MetAP2 activity in cancer cells: […] Post click fluorescent labeling was performed as illustrated in FIG. 45A to locate the nanoaggregation in cells and avoid the possible interference with probe uptake by pre-conjugating a large Cy5 fluorophore.

[8] = tested on: MetAP2 activity in PC3 cells; experiment: Imaging MetAP2 activity in PC3 cells (post click Cy5 labeling); type: cell-based, human; settings: for Cy5 post-labeled fluorescence in cells: 24 h
Protocol: FIG. 45B illustrates fluorescence microscopy imaging of cy5 post-labeled M-SNAT (20 μM) with or without TNP470 and M-SNAT-ctrl (20 μM) in PC3 cells. Permealized cells were also stained with DAPI (blue).
Imaging MetAP2 activity in cancer cells: Cell uptake and MetAP2 specific activation of M-SNAT and M-SNAT-ctrl were evaluated in PC3 and DU145 cells with the MetAP2-specific inhibitor TNP-470. Post click fluorescent labeling was performed as illustrated in FIG. 45A to locate the nanoaggregation in cells and avoid the possible interference with probe uptake by pre-conjugating a large Cy5 fluorophore.

[9] = tested on: MetAP2 activity in 22Rv1 cells; experiment: Imaging MetAP2 activity in 22Rv1 cells (post click Cy5 labeling); type: cell-based, human
PC3 tumors = experiment: 18F-M-SNAT PET/CT imaging of PC3 xenograft mice; type: in vivo
Protocol: FIG. 47A illustrates images after 90 min programed PET/CT scan; n=4. About 150 μCi ^18F-M-SNAT were injected. White and gray indicate CT signal; a thresholding method was utilized to mask the relatively high uptake in liver, spleen, kideney and bladder.
PET/CT imaging of MetAP2 activity in tumor: Before applying fluorine-18 labeled M-SNAT (^18F-M-SNAT) for studies in vivo, the stability of non-radioactive ^19F-M-SNAT was investigated in mouse serum. The ability of ^18F-M-SNAT to indicate MetAP2 activity was assessed in male nude mice bearing subcutaneous PC3 tumors. When the tumors (right shoulder) were grown to 300-500 mm^3, PBS with or without TNP-470 were injected subcutaneously at 50 mg/kg at a remote position (lower left on the back) every other day for 4 days and then injected every day for 5 more days. The last injection was 4 h before imaging (FIG. 47A).
On the day of imaging, fluorine-18 was generated using a cyclotron and conjugated to M-SNAT in a rapid two-step chemical synthesis (FIG. 44). About 150 μCi (8.9 pmol)^18F-M-SNAT were injected to mice intravenously for a programed microPET/CT whole body scan through 90 min. […] About 1.3% was retained at 90 min. In comparison, the inhibitor-treated mice hold about 1% ID/cc through the whole scanning period (FIG. 47C). […] Tumors were resected 20 h after tracer injection for IHC staining ex vivo.

SMILES: Cc1csc(C#N)n1 [4-methyl-2-thiazolecarbonitrile]
second-order reaction rate ([1]; with cysteine, Ye et al. (2011)): 0.7 M⁻¹ s⁻¹

SMILES: CCSSCC(NC(=O)OCc1ccc(OC2O[C@H](CO)[C@H](O)[C@H](O)C2O)cc1)C(=O)NCC(=O)NC(CCCCNC(=O)CCc1ccc2n1[B-](F)(F)[N+]1=C(C)C=C(C)C1=C2)C(=O)NCc1ccc(C(=O)NCCCOc2cnc(C#N)nc2)cc1 (stereo partly drawn) [B-SNAF4-BDP]
retention of fluorescent signal, 9L/LacZ over 9L/Luc ([2]; 2 μM, 37° C., 2 hours): 2.5 fold
retention of fluorescent signal, 9L/LacZ versus 9L/Luc ([2]; fluorescent imaging): significantly higher retention

diameter of nanoaggregates (DLS) [3]: 80 nm
SMILES: C#CCC(NC(=O)C(N)CS)C(=O)NCc1ccc(C(=O)NCCCOc2ccc3nc(C#N)ccc3c2)cc1 (stereo not drawn) [Compound II]
1st order rate constant of intramolecular cyclization [4]: 1.2×10^−3 s^−1 and 1.2±0.04×10^−3 s^−1

diameter of nanoaggregates (DLS) [3]: 80 nm
SMILES: N#Cc1ccc2cc(OCCCNC(=O)c3ccc(CNC(=O)C(N)CS)cc3)ccc2n1 (stereo not drawn) [Compound I]

SMILES: N#Cc1ccccn1 [Entry 3, 2-pyridinecarbonitrile]
2nd order rate constant k [1]: No Rxn^a
2nd order rate constant k ([1]; listed as 2-pyridinecarbonitrile): no reaction was observed

SMILES: N#Cc1ncc(Br)cn1 [Entry 4, 5-bromo-2-pyrimidinecarbonitrile]
2nd order rate constant k [5]: 2.21 ± 0.037 M⁻¹ s⁻¹
2nd order rate constant k ([5]; listed as 5-bromo-2-pyrimidinecarbonitrile): 2.21 M⁻¹ s⁻¹
second-order reaction rate [5]: 0.58 M⁻¹ s⁻¹

SMILES: N#Cc1ncccn1 [Entry 5, 2-pyrimidinecarbonitrile]
2nd order rate constant k [5]: 0.99 ± 0.17 M⁻¹ s⁻¹
2nd order rate constant k ([5]; listed as 2-pyrimidinecarbonitrile): 0.99 M⁻¹ s⁻¹
second-order reaction rate [5]: 0.17 M⁻¹ s⁻¹

SMILES: CC(C)(C)OC(=O)NCCCOc1cnc(C#N)nc1 [Entry 6]
2nd order rate constant k [5]: 0.01 ± 0.0017 M⁻¹ s⁻¹
2nd order rate constant k ([5]; listed as alkoxy-substituted 2-pyrimidinecarbonitrile): 0.01 M⁻¹ s⁻¹

SMILES: CC(C)(S)[C@@H](N)C(=O)O [Entry 7, D-penicillamine]
2nd order rate constant k [6]: 0.029 ± 0.003 M⁻¹ s⁻¹
2nd order rate constant k ([6]; listed as D-penicillamine): 0.029 M⁻¹ s⁻¹
second-order reaction rate [6]: 0.06 M⁻¹ s⁻¹

SMILES: C[C@](N)(CS)C(=O)O [Entry 8, 2-methyl-L-cysteine]
2nd order rate constant k [6]: 5.35 ± 0.8 M⁻¹ s⁻¹
2nd order rate constant k ([6]; listed as 2-methyl-L-cysteine): 5.35 M⁻¹ s⁻¹
second-order reaction rate [6]: 5.7 M⁻¹ s⁻¹

macrocyclization (HPLC, mass spectrometry) (recombinant human MetAP2; 10 μM, MetAP2 7.5 μg/ml, 24 h): could not cyclize
SMILES: C#CCC(NC(=O)CNC(=O)C(CSC)NC(=O)C(N)CCSC)C(=O)NCc1ccc(C(=O)NCCCOc2cnc(C#N)nc2)cc1 (stereo not drawn) [M-SNAT-ctrl] (H-MC(Me)G[Pra][4Amb]-{NH(CH2)3O(2-CNpyrimidin5yl)}; configuration not given here)
Cy5 post-labeled fluorescence in cells [7]: not
Cy5 post-labeled fluorescence in cells ([8]; PC3, 20 μM): not

SMILES: C#CCC(NC(=O)CNC(=O)C(CSSCC)NC(=O)C(N)CCSC)C(=O)NCc1ccc(C(=O)NCCCOc2cnc(C#N)nc2)cc1 (stereo not drawn) [M-SNAT] (H-MC(SEt)G[Pra][4Amb]-{NH(CH2)3O(2-CNpyrimidin5yl)}; configuration not given here)
average diameter of nanoparticles (DLS, TEM) (recombinant human MetAP2; 10 μM, MetAP2 7.5 μg/ml, 24 h): 861 nm
diameter range of nanoparticles (recombinant human MetAP2; 10 μM, MetAP2 7.5 μg/ml, 24 h): 531-1281 nm
macrocyclization (HPLC, mass spectrometry) (recombinant human MetAP2; 10 μM, MetAP2 7.5 μg/ml, 24 h): converted into M-SNAT-cyclized
average diameter of nanoparticles (DLS) (recombinant human MetAP2; FIG. 44B): 861 nM
diameter range of nanoparticles (DLS) (recombinant human MetAP2; FIG. 44B): 531 to 1281 nM
accumulation in cells ([7]; DU145): dose-dependent manner
Cy5 post-labeled fluorescence in cells [7]: red fluorescence was observed
Cy5 post-labeled fluorescence in cells ([9]; MetAP2 knockdown 22Rv1 cells, 24 h): much weaker red fluorescence
Cy5 post-labeled fluorescence in cells ([8]; MetAP2 knockdown PC3 cells): much weaker red fluorescence
Cy5 post-labeled fluorescence in cells ([8]; PC3, 20 μM): red fluorescence was observed

SMILES: CO[C@@H]1[C@H](OC(=O)NC(=O)CCl)CC[C@]2(CO2)[C@H]1[C@@]1(C)O[C@@H]1CC=C(C)C [TNP-470, reference compound]
tumor growth versus PBS-treated group (PC3 tumors; 50 mg/kg s.c., PC3 tumors): no significant difference
effect on M-SNAT fluorescence ([9]; 22Rv1, TNP-470 2 μM): significantly reduced
effect on M-SNAT fluorescence ([8]; PC3, TNP-470 2 μM): significantly reduced
inhibition of M-SNAT signal (flow cytometry) ([8]; PC3 cells treated, permealized and post-labeled): 22.7%

clearance (PC3 tumors; PC3 xenograft mice, 90 min PET/CT): fast clearance by kidney to bladder
SMILES: CCSSCC(NC(=O)C(N)CCSC)C(=O)NCC(=O)NC(Cc1cn(CCOCCOCCOCC[18F])nn1)C(=O)NCc1ccc(C(=O)NCCCOc2cnc(C#N)nc2)cc1 (stereo not drawn) [^18F-M-SNAT]
tumor retention (PC3 tumors; PBS-treated PC3 tumors, at 90 min): About 1.3%
tumor uptake (PC3 tumors; PBS-treated PC3 tumors, within 10 min): 1.6 % ID/cc
tumor uptake (PC3 tumors; TNP-470 (inhibitor)-treated mice, whole scanning period): about 1 % ID/cc

diameter of nanoaggregates (DLS) [3]: around 80 nm
SMILES: C#CCC1NC(=O)C2CSC(=N2)c2ccc3cc(ccc3n2)OCCCNC(=O)c2ccc(cc2)CNC1=O (stereo not drawn) [cycl-II]

SMILES: C#CCC1NC(=O)CNC(=O)C2CSC(=N2)c2ncc(cn2)OCCCNC(=O)c2ccc(cc2)CNC1=O (stereo not drawn) [cycl-IV]
1st order rate constant of intramolecular cyclization [4]: 2.1±0.07×10^−3 s^−1

diameter of nanoaggregates (DLS) [3]: around 80 nm
SMILES: O=C1NCCCOc2ccc3nc(ccc3c2)C2=NC(CS2)C(=O)NCc2ccc1cc2 (stereo not drawn) [cycl-I]

SMILES: C#CCC1NC(=O)CNC(=O)C2(C)CSC(=N2)c2ncc(cn2)OCCCNC(=O)c2ccc(cc2)CNC1=O (stereo not drawn) [cycl-VI]
1st order rate constant of intramolecular cyclization [4]: 2.7±0.1×10^−3 s^−1

SMILES: C#CCC1NC(=O)CCNC(=O)C2CSC(=N2)c2ncc(cn2)OCCCNC(=O)c2ccc(cc2)CNC1=O (stereo not drawn) [cycl-V]
1st order rate constant of intramolecular cyclization [4]: 8.0±0.6×10^−4 s^−1
